Test results published in US6384056B1, “Heterocyclic thioesters or ketones for vision and memory disorders” (GPI NIL Holdings, Inc., priority 1998, dated 2002).

target: FKBP12 (Homo sapiens, UniProt P62942); assay: Ki test procedure: inhibition of peptidyl-prolyl isomerase (rotamase) activity, chymotrypsin-coupled assay; type: biochemical; details: apparent Ki
Text: The inhibition of the prolyl peptidyl cis-trans isomerase activity of FKBP may be measured as an indicator of this affinity.
Inhibition of the peptidyl-prolyl isomerase (rotamase) activity of the compounds used in the inventive methods and pharmaceutical compositions can be evaluated by known methods described in the literature (Harding et al., Nature, 1989, 341:758-760; Holt et al. J. Am. Chem. Soc., 115:9923-9938).
The cis-trans isomerization of an alanine-proline bond in a model substrate, N-succinyl-Ala-Ala-Pro-Phe-p-nitroanilide, is monitored spectrophotometrically in a chymotrypsin-coupled assay, which releases para-nitroanilide from the trans form of the substrate. The inhibition of this reaction caused by the addition of different concentrations of inhibitor is determined, and the data is analyzed as a change in first-order rate constant as a function of inhibitor concentration to yield the apparent Ki values.
In a plastic cuvette are added […] of ice cold assay buffer (25 mM HEPES, pH 7.8, 100 mM NaCl), […] of FKBP (2.5 mM in 10 mM Tris-Cl pH 7.5, 100 mM NaCl, 1 mM dithiothreitol), […] of chymotrypsin (50 mg/ml in 1 mM HCl) and […] of test compound at various concentrations in dimethyl sulfoxide. The reaction is initiated by the addition of 5 mL of substrate (succinyl-Ala-Phe-Pro-Phe-para-nitroanilide 5 mg/mL in 2.35 mM LiCl in trifluoroethanol).
The absorbance at 390 nm versus time is monitored for 90 seconds using a spectrophotometer and the rate constants are determined from the absorbance versus time data files.

Sequence of FKBP12 (P62942 whole entry, species assumed): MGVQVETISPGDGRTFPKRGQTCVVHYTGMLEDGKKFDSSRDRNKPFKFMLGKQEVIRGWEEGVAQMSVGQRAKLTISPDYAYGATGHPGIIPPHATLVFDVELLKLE

With “1,5-Diphenyl-3-pentyl 1-(3,3-dimethyl-1,2-dioxopentyl)-2-piperidinecarbothioate [Compound 40]” as the compound, how does the Ki read?
Its Ki is 1230 nM.

Which Ki does the source give for “2-Phenyl-1-ethyl 1-(2-phenyl-1,2-dioxoethyl)-2-piperidinecarbothioate [Compound 14]” here?
Its Ki is 313 nM.

Which Ki does the source give for “2-Phenyl-1-ethyl 1-(3,3-dimethyl-1,2-dioxopentyl)-2-piperidinecarbothioate [Compound 10]” here?
The Ki was 12 nM.

With “2-Phenyl-1-ethyl (2S)-1-(1-cyclopentyl-1,2-dioxoethyl)-2-pyrrolidinecarbothioate [Compound 28]” as the compound, how does the Ki read?
Its Ki is 108 nM.

Which Ki does the source give for “2-Phenyl-1-ethyl (2S)-1-(2-cyclohexyl-1,2-dioxoethyl)-2-pyrrolidinecarbothioate [Compound 12]” here?
The Ki was 442 nM.

With “3-(1-Naphthyl)-1-propyl 1-(3,3-dimethyl-2-oxopentanoyl)-2-piperidinecarbothioate [Compound 53]” as the compound, how does the Ki read?
The Ki was 261 nM.

Which Ki does the source give for “3-(1-Naphthyl)-1-propyl (2S)-1-(3,3-dimethyl-2-oxopentanoyl)-2-pyrrolidinecarbothioate [Compound 47]” here?
The Ki was 21 nM.

With “3-(2-Chlorophenyl)propyl (2S)-1-(3,3-dimethyl-2-oxopentanoyl)-2-pyrrolidinecarbothioate [Compound 61]” as the compound, how does the Ki read?
The Ki was 139 nM.

For “3-(2-Fluorophenyl)propyl (2S)-1-(3,3-dimethyl-2-oxopentanoyl)-2-pyrrolidinecarbothioate [Compound 57]”, which Ki is on record?
Its Ki is 57 nM.

Which Ki does the source give for “3-(3-Chlorophenyl)propyl (2S)-1-(3,3-dimethyl-2-oxopentanoyl)-2-pyrrolidinecarbothioate [Compound 54]” here?
Its Ki is 37 nM.

Which Ki does the source give for “3-(3-Fluorophenyl)propyl 1-(3,3-dimethyl-2-oxopentanoyl)-2-piperidinecarbothioate [Compound 64]” here?
Its Ki is 163 nM.

For “3-(3-Fluorophenyl)propyl (2S)-1-(3,3-dimethyl-2-oxopentanoyl)-2-pyrrolidinecarbothioate [Compound 58]”, which Ki is on record?
Its Ki is 79 nM.

With “3-(3-Pyridyl)-1-propyl (2S)-1-(2-cyclohexyl-1,2-dioxoethyl)-2-pyrrolidinecarbothioate [Compound 35]” as the compound, how does the Ki read?
The Ki was 62 nM.

Which Ki does the source give for “3-(para-Methoxyphenyl)-1-propyl 1-(2-phenyl-1,2-dioxoethyl)piperidine-2-carbothioate [Compound 43]” here?
The Ki was 259 nM.

For “3-Phenyl-1-propyl 1-(3,3-dimethyl-1,2-dioxobutyl)-2-piperidinecarbothioate [Compound 29]”, which Ki is on record?
The Ki was 59 nM.

Which Ki does the source give for “3-Phenyl-1-propyl (2S)-1-(2-cyclohexyl-1,2-dioxoethyl)-2-pyrrolidinecarbothioate [Compound 32]” here?
Its Ki is 362 nM.

Which Ki does the source give for “3-Phenylpropyl 1-(3,3-dimethyl-2-oxopentanoyl)-2-piperidinecarbothioate [Compound 60]” here?
Its Ki is 90 nM.

For “4,4-Di(para-fluorophenyl)butyl 1-(3,3-dimethyl-2-oxopentanoyl)-2-pyrrolidinecarbothioate [Compound 46]”, which Ki is on record?
The Ki was 757 nM.

Which Ki does the source give for “4-Phenyl-1-butyl 1-(1,2-dioxo-3,3-dimethylbutyl)-2-piperidinecarbothioate [Compound 39]” here?
Its Ki is 347 nM.

With “4-Phenyl-1-butyl (2S)-1-(2-cyclohexyl-1,2-dioxoethyl)-2-pyrrolidinecarbothioate [Compound 33]” as the compound, how does the Ki read?
The Ki was 1700 nM.

For “4-Phenyl-1-butyl (2S)-1-(3,3-dimethyl-1,2-dioxopentyl)-2-pyrrolidinecarbothioate [Compound 34]”, which Ki is on record?
Its Ki is 34 nM.

Which Ki does the source give for “4-Phenylbutyl 1-(3,3-dimethyl-2-oxopentanoyl)-2-piperidinecarbothioate [Compound 59]” here?
The Ki was 962 nM.

Which Ki does the source give for `CCC(C)(C)C(=O)C(=O)N1CCC[C@H]1C(=O)CCCCc1ccccc1` [Compound 1, (2S)-3,3-dimethyl-1-[2-(5-phenylpentanoyl)pyrrolidinyl]pentane-1,2-dione] here?
The Ki was 31 nM.

Which Ki does the source give for `CC(C)(C)C(=O)C(=O)N1CCC[C@H]1C(=O)CCCCc1ccccc1` [Compound 3, (2S)-2-(1-oxo-5-phenyl)-pentyl-1-(3,3-dimethyl-1,2-dioxobutyl)pyrrolidine] here?
Its Ki is 85 nM.

For `CCC(C)(C)C(=O)C(=O)N1CCCC1C(=O)SCc1csc2ccccc12` (stereo not shown) [Compound 11], which Ki is on record?
Its Ki is 299 nM.

For `CCC(C)(C)C(=O)C(=O)N1CCCC[C@H]1C(=O)SCC(c1ccccc1)c1ccccc1` [Compound 49, 2,2-Diphenylethyl (2S)-1-(3,3-dimethyl-2-oxopentanoyl)-2-piperidinecarbothicate], which Ki is on record?
Its Ki is 1330 nM.

system: retinal ganglion cell axons; assay: protection of retinal ganglion cell axons from degeneration 14 days after optic nerve transection (RT97); type: in vivo; details: ± SEM
Text: Efficacy of represetative compounds from different immunophilin ligand series in protecting retinal ganglion cell axons from degeneration following optic nerve transection set forth in Table 9.
Efficacy of representative compounds from different immunophilin ligand series in protecting retinal ganglion cell axons from degeneration following optic nerve transection

Which “RT 97 + RGC axon density 14 days after ON transaction (36 ON axons rescued)” value (“RT 97 + RGC axon density 14 days” for short) does the source give for `O=C(SCCCc1ccccc1)[C@@H]1CCCN1C(=O)NC12CC3CC(CC(C3)C1)C2` [B] here?
Its value is 100.0% ±5.2% SEM.

Which “RT 97 + RGC axon density 14 days” value does the source give for `O=C(SCCCc1ccccc1)[C@@H]1CCCN1S(=O)(=O)Cc1ccccc1` [C] here?
Its value is 60.4% ±3.1% SEM.

Which “RT 97 + RGC axon density 14 days” value does the source give for `O=C(OCCCc1ccccc1)[C@@H]1CCCCN1S(=O)(=O)Cc1ccccc1` [D] here?
Its value is 58.4% ±6.4% SEM.

For `CCC(C)(C)C(=O)C(=O)N1CCCC[C@H]1C(=O)OC(CCc1ccccc1)CCc1ccccc1` [E], which “RT 97 + RGC axon density 14 days” value is on record?
The value was 56.6% ±9.4% SEM.

For `CCC(C)(C)C(=O)C(=O)N1CCS[C@H]1C(=O)OCCCc1cccnc1` [F], which “RT 97 + RGC axon density 14 days” value is on record?
Its value is 55.1% ±5.9% SEM.

For `CCC(C)(C)C(=O)C(=O)N1CCCC[C@H]1C(=O)O` [G], which “RT 97 + RGC axon density 14 days” value is on record?
Its value is 34.0% ±4.8% SEM.

For `CCC(C)(C)C(=O)C(=O)N1CCCC[C@H]1C(N)=O` [H], which “RT 97 + RGC axon density 14 days” value is on record?
The value was 30.3% ±8.0% SEM.

Which “RT 97 + RGC axon density 14 days” value does the source give for `O=C(OCCCc1cccnc1)[C@@H]1CCCN1C(=S)NC1CCCCC1` [I] here?
Its value is 23.8% ±5.3 SEM.

For `CCC(C)(C)C(=O)C(=O)N1CCC[C@H]1C(=O)CCCCc1cccnc1` [J], which “RT 97 + RGC axon density 14 days” value is on record?
The value was 15.8% ±4.8% SEM.

With `CCC(C)(C)C(=O)C(=O)N1CCCC[C@H]1C(=O)SCCC(c1ccccc1)c1ccccc1` [K] as the compound, how does the “RT 97 + RGC axon density 14 days” value read?
The value was 13.0% ±4.2% SEM.

For `CCC(C)(C)C(=O)C(=O)N1CCC[C@H]1C(=O)O` [L], which “RT 97 + RGC axon density 14 days” value is on record?
The value was 7.8% ±3.0% SEM.

For `CCC(C)(C)C(=O)C(=O)N1CCC[C@H]1C(=O)SCCC(c1ccccc1)c1ccccc1` [M], which “RT 97 + RGC axon density 14 days” value is on record?
Its value is −6.3% +3.9% SEM.

system: not listed separately; assay: Clearance; type: in vitro ADME; details: Table 9 comments

With `O=C(SCCCc1ccccc1)[C@@H]1CCCN1S(=O)(=O)Cc1ccccc1` [C] as the compound, how does the Clearance read?
Its Clearance is 31.1 µL/min.

Which Clearance does the source give for `CCC(C)(C)C(=O)C(=O)N1CCCC[C@H]1C(=O)OC(CCc1ccccc1)CCc1ccccc1` [E] here?
The Clearance was 41.8 µL/min.

With `O=C(OCCCc1cccnc1)[C@@H]1CCCN1C(=S)NC1CCCCC1` [I] as the compound, how does the Clearance read?
The Clearance was 8.0 µL/min.

Which Clearance does the source give for `CCC(C)(C)C(=O)C(=O)N1CCC[C@H]1C(=O)CCCCc1cccnc1` [J] here?
The Clearance was 1.5 µL/min.

With `CCC(C)(C)C(=O)C(=O)N1CCCC[C@H]1C(=O)SCCC(c1ccccc1)c1ccccc1` [K] as the compound, how does the Clearance read?
Its Clearance is 4.5 µL/min.

With `CCC(C)(C)C(=O)C(=O)N1CCC[C@H]1C(=O)O` [L] as the compound, how does the Clearance read?
Its Clearance is 5.2 µL/min.

With `CCC(C)(C)C(=O)C(=O)N1CCC[C@H]1C(=O)SCCC(c1ccccc1)c1ccccc1` [M] as the compound, how does the Clearance read?
Its Clearance is 12.5 µL/min.

For `CN(C)C(=O)N1CCC[C@H]1C(=O)SCCCc1ccccc1` [N], which Clearance is on record?
The Clearance was 21.9 µL/min.
